Data set [1] has as its system Murine melanoma (B16 F10) cells. The data set is described as follows: Inhibitory effect on melanin synthesis in murine B16 melanoma cells. The class given is cell-based. As to conditions: Mus musculus, 72 h, 3 days, read-out: Inhibition rate of melanin synthesis (%). As for the experimental part: In order to confirm the inhibitory effect of artemisinine on melanin synthesis, murine B16 melanoma cells were used to perform the following experiment.
Artemisinine used in the present experiment was purchased from Sigma.
Murine melanoma (B16 F10) cells were inoculated on 6 well plates containing DMEM media supplemented with 10% FBS (fetal bovine serum) (1×10^5 per well), and cultured in 5% CO2 at37° C. until reaching about 80% confluency. Then, media was removed from the cells, replaced with fresh media, and cultured in 5% CO2 at 37° C. for 3 days. […] Media was removed from the cells, and the cells were washed with PBS (phosphate buffered saline), followed by trypsin treatment. The cells were recovered, and counted using a hemocytometer. Then, the cells were centrifuged at 5,000 to 10,000 rpm for 10 min, and the supernatant was removed to obtain a pellet. The pellet was dried at 60° C., and suspended in 100 […] of 1 M sodium hydroxide solution containing 10% DMSO in a 60° C. water bath to obtain melanin in the cells. Absorbance was determined at 490 nm using a microplate reader to assess the melanin content per cell. As a control group, a known inhibitor of melanin synthesis, arbutin, was used.

A further data set concerns the target T1, tyrosinase (Mus musculus, UniProt P11344).
T1 construct: endogenous in cells; host or cells: murine melanoma B16 F10 cells
T1 sequence (P11344 19-533): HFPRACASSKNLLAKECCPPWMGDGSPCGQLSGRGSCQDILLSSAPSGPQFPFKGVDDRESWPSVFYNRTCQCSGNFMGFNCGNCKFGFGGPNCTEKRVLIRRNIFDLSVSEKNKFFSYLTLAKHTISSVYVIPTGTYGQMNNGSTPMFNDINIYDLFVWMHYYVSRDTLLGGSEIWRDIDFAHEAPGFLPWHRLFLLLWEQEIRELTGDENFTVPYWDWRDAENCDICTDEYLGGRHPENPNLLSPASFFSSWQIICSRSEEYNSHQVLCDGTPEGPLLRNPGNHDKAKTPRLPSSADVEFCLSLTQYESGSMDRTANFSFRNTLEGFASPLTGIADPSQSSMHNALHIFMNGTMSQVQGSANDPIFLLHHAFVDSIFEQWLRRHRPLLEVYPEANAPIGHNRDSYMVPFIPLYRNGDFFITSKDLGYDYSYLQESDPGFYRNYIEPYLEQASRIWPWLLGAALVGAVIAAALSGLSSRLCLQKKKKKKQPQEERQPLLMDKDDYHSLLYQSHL
As to the kind of experiment: Inhibitory effect on tyrosinase activity in murine B16 melanoma cells. It is filed as cell-based. The following applies: B16 F10 cells, 3 days, read-out: Inhibition rate of tyrosinase activity (%). The procedure: In order to confirm the inhibitory effect of artemisinine on tyrosinase activity, murine B16 melanoma cells were used to perform the following experiment.
Murine melanoma (B16 F10) cells were inoculated on 6 well plates containing DMEM media supplemented with 10% FBS (1×10^5 per well), and cultured in 5% CO2 at 37° C. until reaching about 80% confluency. Then, media was removed from the cells, replaced with fresh media, and cultured in 5% CO2 at37° C. for 3 days. […] Media was removed from the cells, and the cells were washed with PBS, followed by trypsin treatment. The cells were recovered, and counted using a hematocytometer. Then, the cells were centrifuged at 5,000 to 10,000 rpm for 10 min, and the supernatant was removed to obtain a pellet. The pellet was suspended in a lysis buffer, and centrifuged at 12,000 rpm for 10 min to collect the supernatant. Absorbance was determined at 492 nm using a microplate reader to assess the tyrosinase activity per cell. As a control group, arbutin was used.

Data set [2] has as its system Murine melanoma (B16 F10) cells. As to the kind of experiment: Cytotoxicity at treatment concentrations in B16 F10 cells. It is filed as cell-based. The following applies: 10 μM, 50 μM and 100 μM.
For data set [3], the system named is brown guinea pigs (Tortoiseshell guinea pigs). As to the kind of experiment: Whitening effect on UV-induced pigmentation in brown guinea pigs (chromameter L*). The class given is in vivo. As to conditions: topical once or twice a day for 50 days, UV-pigmented guinea pig skin. An excerpt:
In order to confirm the whitening effect of artemisinine in animals, brown guinea pigs (Tortoiseshell guinea pigs), which are known to increase pigmentation upon exposure to UV like human, were used to perform the following experiment.
(§1) To cause pigmentation in the brown guinea pig by UV, light-shielding aluminum foil with windows of 3×3 cm^2 was adhered to hair-removed abdominal skin of brown guinea pig, and then UV light was irradiated thereon with a SE lamp (wavelength 290-320 nm, Toshiba) (total irradiation energy=1350 mJ/cm^2). After UV irradiation, the aluminum foil was removed, and then the samples (artemisinine and arbutin) were applied as follows. […] From the maximum, each sample was applied. Applications were performed once or twice a day for 50 days. The samples were dissolved and diluted in a certain solvent (a mixed solvent of propylene glycol:ethanol:water=5:3:2) and applied with a swab. Another region was applied with the solvent only as a control. Occurrence of cumulative irritation also was examined.
The degree of skin pigmentation was determined using a chromameter (MINOLTA CR2002) to evaluate the effects. L*A*B* colorimetric system is used to classify color, and an L* value was used as standard in the present invention. The L* value was corrected using white board standard, and measured more than five times at one region, repeatedly. Pigmentation was evenly distributed. Skin color differences (ΔL*) between initial application point and terminal application point were obtained by using the following Mathematical Equation 1, and then using these values, their effects of the applied samples were evaluated.
ΔL*=L*value at terminal application day−L*value at initial application day [Mathematical Equation 1]
ΔL* values were obtained at sample application region and control application region and compared. From the result, the whitening effects of the samples can be evaluated.

Data set [4] has the same test system. The data set is described as follows: Cumulative irritation examined in brown guinea pigs. As to conditions: topical application for 50 days, guinea pig. It is filed as in vivo.
Text: as §1

The term inhibition denotes the relative decrease from the control value, in per cent.

In the case of `C[C@@H]1CC[C@H]2[C@@H](C)C(=O)O[C@@H]3O[C@@]4(C)CC[C@@H]1[C@]32OO4` [Artemisinine, artemisinine], the inhibition at 10 µM in data set [1] (10 μM) was 22%; on tyrosinase (10 μM), 19%. The inhibition at 50 µM came to 50% in data set [1] (50 μM) and 38% at tyrosinase (50 μM). In addition, the inhibition at 100 µM in data set [1] was determined as 65%; at tyrosinase it was 67%. Besides, the Cytotoxicity entry in data set [2] is “no cytotoxicity”. In addition, the entries for the “Whitening effect (ΔL*)” value in data set [3] (0.2 %) and in data set [3] (1.0 %) were 0.40 and 0.65, respectively. Also, the Cumulative irritation result in data set [4] was “no cumulative irritation”.
On to `OC[C@H]1O[C@@H](Oc2ccc(O)cc2)[C@H](O)[C@@H](O)[C@@H]1O` [Arbutin, arbutin], for which the values for the inhibition at 100 µM (in data set [1]; at tyrosinase) were 52% and 45%, respectively. The “Whitening effect (ΔL*)” value in data set [3] (1.0 %) is 0.55.

For the origin of these results see patent publication US20100061948A1, “COMPOSITION FOR SKIN WHITENING COMPRISING ARTEMISININE” (priority 2007, published 2010).
